#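 96-well plates; 48 h exposure; 5 concentrations. Endpoints by linear interpolation between flanking doses. Not reached: highest tested concentration assigned. At the TGI there is no net growth.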
# What was measured:
# Assay in all cases: NCI-60 cell line screen, 48 h
# SK-MEL-5 melanoma = tested on: SK-MEL-5 melanoma
# CCRF-CEM leukemia = tested on: CCRF-CEM leukemia
# UACC-62 melanoma = tested on: UACC-62 melanoma
# OVCAR-8 ovarian = tested on: OVCAR-8 ovarian
# HCT-15 colon = tested on: HCT-15 colon
# HCT-116 colon = tested on: HCT-116 colon
# UO-31 renal = tested on: UO-31 renal
# NCI-H226 lung = tested on: NCI-H226 lung
# M14 melanoma = tested on: M14 melanoma
# SF-268 CNS = tested on: SF-268 CNS
# DMS 273 small cell lung = tested on: DMS 273 small cell lung
# HOP-18 NSCLC = tested on: HOP-18 NSCLC
# DMS 114 small cell lung = tested on: DMS 114 small cell lung
# RXF-631 renal = tested on: RXF-631 renal
# RXF 393 renal = tested on: RXF 393 renal
# HL-60(TB) leukemia = tested on: HL-60(TB) leukemia
# HOP-62 NSCLC = tested on: HOP-62 NSCLC
# A549 NSCLC = tested on: A549 NSCLC
# NCI-H23 lung = tested on: NCI-H23 lung
# SNB-75 CNS = tested on: SNB-75 CNS
# TK-10 renal = tested on: TK-10 renal
# HCC-2998 colon = tested on: HCC-2998 colon
# DLD-1 colon = tested on: DLD-1 colon
# 786-0 renal = tested on: 786-0 renal
# OVCAR-4 ovarian = tested on: OVCAR-4 ovarian
# NCI-H460 lung = tested on: NCI-H460 lung
# SK-MEL-2 melanoma = tested on: SK-MEL-2 melanoma
# OVCAR-3 ovarian = tested on: OVCAR-3 ovarian
# SW-620 colon = tested on: SW-620 colon
# M19-MEL melanoma = tested on: M19-MEL melanoma
# SK-MEL-28 melanoma = tested on: SK-MEL-28 melanoma
# A498 renal = tested on: A498 renal
# IGROV1 ovarian = tested on: IGROV1 ovarian
# SNB-78 CNS = tested on: SNB-78 CNS
# SNB-19 CNS = tested on: SNB-19 CNS
# K-562 leukemia = tested on: K-562 leukemia
# SN12C renal = tested on: SN12C renal
# CAKI-1 renal = tested on: CAKI-1 renal
# KM12 colon = tested on: KM12 colon
# SF-295 CNS = tested on: SF-295 CNS
# UACC-257 melanoma = tested on: UACC-257 melanoma
# OVCAR-5 ovarian = tested on: OVCAR-5 ovarian
# HT29 colon = tested on: HT29 colon
# ACHN renal = tested on: ACHN renal
# SK-OV-3 ovarian = tested on: SK-OV-3 ovarian
# SF-539 CNS = tested on: SF-539 CNS
# MOLT-4 leukemia = tested on: MOLT-4 leukemia
# HOP-92 NSCLC = tested on: HOP-92 NSCLC
# EKVX NSCLC = tested on: EKVX NSCLC
# COLO 205 colon = tested on: COLO 205 colon
# LOX IMVI melanoma = tested on: LOX IMVI melanoma
# MALME-3M melanoma = tested on: MALME-3M melanoma
# U251 CNS = tested on: U251 CNS
compound,measurement,setting,value
CC(C)(C)c1ccc(OCCOCCOc2ccc(C(C)(C)C)cc2S(=O)(=O)Nc2ccc([N+](=O)[O-])cc2)c(S(=O)(=O)Nc2ccc([N+](=O)[O-])cc2)c1,TGI,SK-MEL-5 melanoma,> 100 µM
same,TGI,CCRF-CEM leukemia,> 100 µM
same,TGI,UACC-62 melanoma,> 100 µM
same,TGI,OVCAR-8 ovarian,> 100 µM
same,TGI,HCT-15 colon,> 100 µM
same,TGI,HCT-116 colon,> 100 µM
same,TGI,UO-31 renal,> 100 µM
same,TGI,NCI-H226 lung,> 100 µM
same,TGI,M14 melanoma,> 100 µM
same,TGI,SF-268 CNS,> 100 µM
same,TGI,DMS 273 small cell lung,> 100 µM
same,TGI,HOP-18 NSCLC,> 100 µM
same,TGI,DMS 114 small cell lung,> 100 µM
same,TGI,RXF-631 renal,> 100 µM
same,TGI,RXF 393 renal,> 100 µM
same,TGI,HL-60(TB) leukemia,> 100 µM
same,TGI,HOP-62 NSCLC,> 100 µM
same,TGI,A549 NSCLC,> 100 µM
same,TGI,NCI-H23 lung,> 100 µM
same,TGI,SNB-75 CNS,> 100 µM
same,TGI,TK-10 renal,> 100 µM
same,TGI,HCC-2998 colon,> 100 µM
same,TGI,DLD-1 colon,> 100 µM
same,TGI,786-0 renal,> 100 µM
same,TGI,OVCAR-4 ovarian,> 100 µM
same,TGI,NCI-H460 lung,> 100 µM
same,TGI,SK-MEL-2 melanoma,> 100 µM
same,TGI,OVCAR-3 ovarian,> 100 µM
same,TGI,SW-620 colon,> 100 µM
same,TGI,M19-MEL melanoma,> 100 µM
same,TGI,SK-MEL-28 melanoma,> 100 µM
same,TGI,A498 renal,90.9 µM
same,TGI,IGROV1 ovarian,> 100 µM
same,TGI,SNB-78 CNS,> 100 µM
same,TGI,SNB-19 CNS,> 100 µM
same,TGI,K-562 leukemia,> 100 µM
same,TGI,SN12C renal,> 100 µM
same,TGI,CAKI-1 renal,> 100 µM
same,TGI,KM12 colon,> 100 µM
same,TGI,SF-295 CNS,> 100 µM
same,TGI,UACC-257 melanoma,> 100 µM
same,TGI,OVCAR-5 ovarian,> 100 µM
same,TGI,HT29 colon,> 100 µM
same,TGI,ACHN renal,> 100 µM
same,TGI,SK-OV-3 ovarian,> 100 µM
same,TGI,SF-539 CNS,> 100 µM
same,TGI,MOLT-4 leukemia,43.9 µM
same,TGI,HOP-92 NSCLC,72.3 µM
same,TGI,EKVX NSCLC,> 100 µM
same,TGI,COLO 205 colon,> 100 µM
same,TGI,LOX IMVI melanoma,> 100 µM
same,TGI,MALME-3M melanoma,> 100 µM
same,TGI,U251 CNS,> 100 µM
